Blank lines part the entries; values can stand above or below the compound they belong to.
Experiments:
Assay in all cases: Competitive isoTOP-ABPP, cell lysates
Type in all cases: binding
DDX59 C414 (Q5T1V6) = target: T1, DDX59 C414 (Q5T1V6) (Homo sapiens, UniProt Q5T1V6)
T1 sequence (Q5T1V6 1-619): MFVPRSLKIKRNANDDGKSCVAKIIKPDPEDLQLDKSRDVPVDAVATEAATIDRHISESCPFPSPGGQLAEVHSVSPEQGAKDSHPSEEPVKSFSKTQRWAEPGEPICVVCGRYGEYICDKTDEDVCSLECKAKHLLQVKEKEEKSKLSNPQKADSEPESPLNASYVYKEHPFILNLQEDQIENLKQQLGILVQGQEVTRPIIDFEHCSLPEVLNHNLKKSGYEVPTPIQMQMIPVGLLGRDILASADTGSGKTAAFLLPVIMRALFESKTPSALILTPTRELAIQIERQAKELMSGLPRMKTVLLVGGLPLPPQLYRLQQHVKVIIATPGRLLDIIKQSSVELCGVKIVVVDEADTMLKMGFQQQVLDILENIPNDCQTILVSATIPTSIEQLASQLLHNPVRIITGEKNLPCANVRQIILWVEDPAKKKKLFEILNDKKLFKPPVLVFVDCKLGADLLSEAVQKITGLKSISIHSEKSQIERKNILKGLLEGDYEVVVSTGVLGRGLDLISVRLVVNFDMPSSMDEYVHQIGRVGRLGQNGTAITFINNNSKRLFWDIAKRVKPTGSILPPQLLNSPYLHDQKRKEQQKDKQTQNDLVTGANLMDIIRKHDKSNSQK

LRBA C1704 (P50851) = LRBA C1704 (P50851) (Homo sapiens, UniProt P50851); conditions: for isoTOP-ABPP ratio (reactivity profile), P50851_C1704: 500 μm in-vitro ramos
LRBA C2675 (P50851) = LRBA C2675 (P50851) (Homo sapiens, UniProt P50851)
PFKFB4 C159 (Q16877) = PFKFB4 C159 (Q16877) (Homo sapiens, UniProt Q16877); conditions: for isoTOP-ABPP ratio (reactivity profile), Q16877_C159: 500 μm in-vitro ramos
RRAGC C377 (Q9HB90) = RRAGC C377 (Q9HB90) (Homo sapiens, UniProt Q9HB90); conditions: for R value (DMSO/fragment): in vitro, MDA-MB-231; for isoTOP-ABPP ratio, Q9HB90_C377: invitro; for isoTOP-ABPP ratio (reactivity profile), Q9HB90_C377: 500 μm in-vitro ramos_231
USP16 C205 (Q9Y5T5) = USP16 C205 (Q9Y5T5) (Homo sapiens, UniProt Q9Y5T5); conditions: for isoTOP-ABPP reactivity profile ratio, Q9Y5T5_C205: 500 μm
ACAT1 C413 (P24752) = target: T2, ACAT1 C413 (P24752) (Homo sapiens, UniProt P24752); conditions: for isoTOP-ABPP reactivity profile ratio, P24752_C413: 500 μm
T2 sequence (P24752 34-427): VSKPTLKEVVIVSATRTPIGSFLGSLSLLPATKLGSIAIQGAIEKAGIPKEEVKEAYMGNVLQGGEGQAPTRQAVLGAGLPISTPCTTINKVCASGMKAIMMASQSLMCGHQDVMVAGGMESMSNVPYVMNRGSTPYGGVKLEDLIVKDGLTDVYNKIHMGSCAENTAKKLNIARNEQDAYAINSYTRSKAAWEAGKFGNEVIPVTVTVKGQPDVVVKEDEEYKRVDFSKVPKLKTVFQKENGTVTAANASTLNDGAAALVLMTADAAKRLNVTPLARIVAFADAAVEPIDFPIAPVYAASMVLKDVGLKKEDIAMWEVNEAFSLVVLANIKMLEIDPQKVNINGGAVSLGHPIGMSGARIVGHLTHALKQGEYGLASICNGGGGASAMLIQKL

USP16 C205 (Q9Y5T5), sequence (Q9Y5T5 whole entry): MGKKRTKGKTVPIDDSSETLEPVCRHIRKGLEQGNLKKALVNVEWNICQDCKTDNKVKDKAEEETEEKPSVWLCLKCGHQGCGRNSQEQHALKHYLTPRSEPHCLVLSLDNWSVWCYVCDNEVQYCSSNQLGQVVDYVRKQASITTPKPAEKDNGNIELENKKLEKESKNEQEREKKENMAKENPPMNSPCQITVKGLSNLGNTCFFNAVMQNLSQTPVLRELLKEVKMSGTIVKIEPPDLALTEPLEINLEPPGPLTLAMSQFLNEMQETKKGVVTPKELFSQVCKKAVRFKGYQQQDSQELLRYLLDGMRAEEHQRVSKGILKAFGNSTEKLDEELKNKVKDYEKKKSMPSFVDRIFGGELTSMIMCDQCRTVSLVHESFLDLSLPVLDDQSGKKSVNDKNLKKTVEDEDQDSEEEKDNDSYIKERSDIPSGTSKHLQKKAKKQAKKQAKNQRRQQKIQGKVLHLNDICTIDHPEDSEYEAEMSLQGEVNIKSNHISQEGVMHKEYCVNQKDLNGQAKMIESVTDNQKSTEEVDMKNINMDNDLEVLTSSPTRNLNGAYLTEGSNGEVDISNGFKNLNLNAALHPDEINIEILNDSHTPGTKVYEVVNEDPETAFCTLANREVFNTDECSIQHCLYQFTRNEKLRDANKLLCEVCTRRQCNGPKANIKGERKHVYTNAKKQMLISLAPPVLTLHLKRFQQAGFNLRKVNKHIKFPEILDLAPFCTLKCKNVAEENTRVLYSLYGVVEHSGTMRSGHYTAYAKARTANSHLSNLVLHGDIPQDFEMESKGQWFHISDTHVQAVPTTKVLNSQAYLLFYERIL
RRAGC C377 (Q9HB90), sequence (Q9HB90 2-399 limits assumed): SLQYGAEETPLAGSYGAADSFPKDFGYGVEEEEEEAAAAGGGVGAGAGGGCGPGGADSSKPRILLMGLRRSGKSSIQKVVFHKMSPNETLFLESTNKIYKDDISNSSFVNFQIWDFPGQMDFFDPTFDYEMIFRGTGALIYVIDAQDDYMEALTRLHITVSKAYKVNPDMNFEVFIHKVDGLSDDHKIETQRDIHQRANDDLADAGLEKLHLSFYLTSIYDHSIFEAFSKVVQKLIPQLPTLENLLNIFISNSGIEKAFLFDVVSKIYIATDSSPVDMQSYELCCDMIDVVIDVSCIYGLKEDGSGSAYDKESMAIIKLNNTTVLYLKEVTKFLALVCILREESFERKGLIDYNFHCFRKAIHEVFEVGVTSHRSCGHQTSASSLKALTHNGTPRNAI
RRAGC C377 (Q9HB90), sequence (Q7L523 whole entry partner, the tested form may be a part): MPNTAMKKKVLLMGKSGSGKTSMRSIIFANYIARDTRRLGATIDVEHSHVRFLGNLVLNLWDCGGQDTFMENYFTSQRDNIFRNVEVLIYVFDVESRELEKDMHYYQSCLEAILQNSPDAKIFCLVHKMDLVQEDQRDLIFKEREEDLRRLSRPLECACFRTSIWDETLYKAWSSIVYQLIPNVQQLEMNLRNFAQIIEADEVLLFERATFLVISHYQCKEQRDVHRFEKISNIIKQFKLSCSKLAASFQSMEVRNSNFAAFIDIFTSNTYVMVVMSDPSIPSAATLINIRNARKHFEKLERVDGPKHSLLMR
LRBA C2675 (P50851), sequence (P50851 whole entry): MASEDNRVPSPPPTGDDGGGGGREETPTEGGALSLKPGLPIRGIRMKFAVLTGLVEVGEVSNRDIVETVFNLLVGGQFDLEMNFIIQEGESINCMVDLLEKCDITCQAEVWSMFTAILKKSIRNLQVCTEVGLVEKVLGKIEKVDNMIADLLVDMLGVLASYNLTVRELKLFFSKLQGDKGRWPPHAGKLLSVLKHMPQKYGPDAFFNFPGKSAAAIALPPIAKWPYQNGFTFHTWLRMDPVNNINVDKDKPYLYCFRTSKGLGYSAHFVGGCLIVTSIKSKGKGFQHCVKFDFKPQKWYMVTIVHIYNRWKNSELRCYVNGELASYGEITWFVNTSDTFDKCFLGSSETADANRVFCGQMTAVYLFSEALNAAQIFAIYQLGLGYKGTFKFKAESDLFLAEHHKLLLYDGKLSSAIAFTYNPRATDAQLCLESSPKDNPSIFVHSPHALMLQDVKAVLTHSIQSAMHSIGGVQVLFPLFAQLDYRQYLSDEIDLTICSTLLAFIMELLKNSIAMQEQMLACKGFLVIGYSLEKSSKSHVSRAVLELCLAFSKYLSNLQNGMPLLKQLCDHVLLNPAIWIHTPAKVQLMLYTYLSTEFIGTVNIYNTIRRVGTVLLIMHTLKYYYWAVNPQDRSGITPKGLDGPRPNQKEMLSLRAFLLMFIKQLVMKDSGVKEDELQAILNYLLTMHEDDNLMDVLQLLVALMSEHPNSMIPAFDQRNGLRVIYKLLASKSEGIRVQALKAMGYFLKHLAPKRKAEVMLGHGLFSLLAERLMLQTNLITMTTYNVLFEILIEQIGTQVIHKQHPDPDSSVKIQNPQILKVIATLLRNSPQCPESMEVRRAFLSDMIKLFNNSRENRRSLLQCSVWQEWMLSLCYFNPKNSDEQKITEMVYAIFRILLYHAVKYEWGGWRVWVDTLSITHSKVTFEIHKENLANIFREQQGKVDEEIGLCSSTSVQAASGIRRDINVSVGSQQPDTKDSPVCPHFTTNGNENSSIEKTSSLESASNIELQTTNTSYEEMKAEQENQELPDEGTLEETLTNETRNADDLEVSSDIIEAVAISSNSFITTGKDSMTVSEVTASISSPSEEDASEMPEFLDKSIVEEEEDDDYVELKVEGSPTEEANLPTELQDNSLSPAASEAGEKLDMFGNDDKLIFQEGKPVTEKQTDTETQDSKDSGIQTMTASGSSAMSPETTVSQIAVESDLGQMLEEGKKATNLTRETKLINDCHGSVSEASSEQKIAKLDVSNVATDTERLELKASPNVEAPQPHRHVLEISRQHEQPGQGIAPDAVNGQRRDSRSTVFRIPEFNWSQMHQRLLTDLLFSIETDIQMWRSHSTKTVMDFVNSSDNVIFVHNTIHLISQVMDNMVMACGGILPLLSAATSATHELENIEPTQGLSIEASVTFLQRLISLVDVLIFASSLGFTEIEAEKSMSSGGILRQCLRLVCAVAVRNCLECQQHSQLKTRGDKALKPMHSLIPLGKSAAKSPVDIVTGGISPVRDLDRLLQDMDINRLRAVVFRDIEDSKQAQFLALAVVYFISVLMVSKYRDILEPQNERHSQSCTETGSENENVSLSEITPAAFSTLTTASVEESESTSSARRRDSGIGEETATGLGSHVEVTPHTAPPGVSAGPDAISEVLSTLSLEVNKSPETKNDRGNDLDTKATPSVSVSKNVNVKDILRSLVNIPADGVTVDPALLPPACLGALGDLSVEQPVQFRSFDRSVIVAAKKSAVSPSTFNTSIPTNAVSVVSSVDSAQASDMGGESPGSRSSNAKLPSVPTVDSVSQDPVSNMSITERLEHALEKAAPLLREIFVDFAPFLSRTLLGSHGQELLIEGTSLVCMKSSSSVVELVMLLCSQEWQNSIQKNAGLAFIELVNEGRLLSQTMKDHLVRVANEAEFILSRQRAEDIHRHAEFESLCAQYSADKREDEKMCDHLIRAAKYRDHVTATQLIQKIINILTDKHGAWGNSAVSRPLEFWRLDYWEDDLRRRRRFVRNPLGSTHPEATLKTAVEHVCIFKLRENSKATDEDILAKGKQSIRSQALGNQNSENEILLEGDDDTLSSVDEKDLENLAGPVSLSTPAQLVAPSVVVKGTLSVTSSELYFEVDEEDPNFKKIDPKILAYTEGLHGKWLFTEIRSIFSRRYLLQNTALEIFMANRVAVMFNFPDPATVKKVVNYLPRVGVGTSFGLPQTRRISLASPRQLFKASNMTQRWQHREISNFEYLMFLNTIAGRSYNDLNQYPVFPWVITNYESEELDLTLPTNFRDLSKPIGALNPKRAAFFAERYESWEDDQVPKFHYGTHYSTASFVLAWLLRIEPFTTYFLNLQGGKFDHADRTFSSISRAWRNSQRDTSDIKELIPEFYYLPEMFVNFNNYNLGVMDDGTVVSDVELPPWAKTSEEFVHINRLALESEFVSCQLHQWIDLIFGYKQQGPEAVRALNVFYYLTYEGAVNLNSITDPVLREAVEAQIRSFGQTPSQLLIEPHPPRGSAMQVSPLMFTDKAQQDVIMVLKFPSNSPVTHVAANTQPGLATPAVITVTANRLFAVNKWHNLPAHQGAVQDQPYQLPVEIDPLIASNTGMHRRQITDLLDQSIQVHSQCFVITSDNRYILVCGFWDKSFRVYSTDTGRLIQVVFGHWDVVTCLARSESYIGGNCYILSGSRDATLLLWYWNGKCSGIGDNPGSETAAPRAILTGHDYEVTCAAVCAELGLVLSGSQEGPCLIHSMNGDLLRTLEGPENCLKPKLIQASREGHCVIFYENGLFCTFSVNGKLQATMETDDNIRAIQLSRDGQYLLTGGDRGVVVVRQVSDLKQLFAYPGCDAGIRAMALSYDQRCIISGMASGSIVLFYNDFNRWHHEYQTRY
LRBA C1704 (P50851), sequence (P50851 whole entry): as above
PFKFB4 C159 (Q16877), sequence (Q16877 whole entry, the tested form may be a part): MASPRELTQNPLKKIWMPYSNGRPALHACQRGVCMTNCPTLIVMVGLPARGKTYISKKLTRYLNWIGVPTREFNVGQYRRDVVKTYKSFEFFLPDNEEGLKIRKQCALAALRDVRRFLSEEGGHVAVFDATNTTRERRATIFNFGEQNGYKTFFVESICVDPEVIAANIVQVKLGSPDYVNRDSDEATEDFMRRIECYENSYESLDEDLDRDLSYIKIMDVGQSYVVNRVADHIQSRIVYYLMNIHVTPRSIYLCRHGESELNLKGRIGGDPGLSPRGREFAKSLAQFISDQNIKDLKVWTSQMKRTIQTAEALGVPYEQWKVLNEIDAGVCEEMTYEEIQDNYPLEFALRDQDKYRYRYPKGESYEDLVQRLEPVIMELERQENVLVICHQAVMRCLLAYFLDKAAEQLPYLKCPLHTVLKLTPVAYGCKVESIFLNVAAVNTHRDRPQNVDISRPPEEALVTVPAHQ

R value (DMSO/fragment) (DDX59 C414 (Q5T1V6); 500 μM, invitro, ramos): 6.0
R value (DMSO/fragment) (LRBA C1704 (P50851); 500 μM, invitro, ramos): 3.6
R value (DMSO/fragment) (LRBA C2675 (P50851); 500 μM, invitro, ramos): 5.1
R value (DMSO/fragment) (PFKFB4 C159 (Q16877); 500 μM, invitro, ramos): 12.9
R value (DMSO/fragment) (RRAGC C377 (Q9HB90); 500 μM): 3.7
R value (DMSO/fragment) (USP16 C205 (Q9Y5T5); 500 μM, invitro, ramos): 8.8
R value (DMSO/fragment) (ACAT1 C413 (P24752); 500 μM, in vitro, MDA-MB-231): 15.3
R value (DMSO/fragment) (ACAT1 C413 (P24752); 500 μM, invitro, ramos): 20.0
SMILES: O=C(CCl)Nc1cc(C(F)(F)F)cc(C(F)(F)F)c1 [compound 3]

R value (DMSO/fragment) (LRBA C1704 (P50851); 250 μM, in vitro, Ramos): 1.5
R value (DMSO/fragment) (LRBA C2675 (P50851); 250 μM, in vitro, MDA-MB-231): 1.1
R value (DMSO/fragment) (PFKFB4 C159 (Q16877); 250 μM, in vitro, MDA-MB-231): 1.4
R value (DMSO/fragment) (RRAGC C377 (Q9HB90); 250 μM): 3.5
R value (DMSO/fragment) (USP16 C205 (Q9Y5T5); 250 μM, in vitro, Ramos): 20.0
R value (DMSO/fragment) (ACAT1 C413 (P24752); 250 μM, in vitro, MDA-MB-231): 3.3
SMILES: COc1ccc(C2CC(c3cccs3)=NN2C(=O)CCl)cc1 (stereo not drawn) [compound 4]

isoTOP-ABPP ratio, P50851_C1704 (LRBA C1704 (P50851); 500 μM, invitro, ramos): 1.4
isoTOP-ABPP ratio, P50851_C2675 (LRBA C2675 (P50851); 500 μM, invitro, ramos): 1.3
isoTOP-ABPP ratio, Q16877_C159 (PFKFB4 C159 (Q16877); 500 μM, invitro, ramos): 0.6
isoTOP-ABPP ratio, Q9HB90_C377 (RRAGC C377 (Q9HB90); 500 μM, ramos): 1.6
isoTOP-ABPP ratio, Q9Y5T5_C205 (USP16 C205 (Q9Y5T5); 500 μM, invitro, 231): 20.0
isoTOP-ABPP ratio P24752_C413 (ACAT1 C413 (P24752); 500 μM, invitro, 231): 1.9
isoTOP-ABPP ratio P24752_C413 (ACAT1 C413 (P24752); 500 μM, invitro, ramos): 1.7
SMILES: Cn1cc(S(=O)(=O)N2CCOCC2)cc1C(=O)NC(=O)CCl [compound 11]

isoTOP-ABPP ratio, Q5T1V6_C414 (DDX59 C414 (Q5T1V6); 500 μM, invitro, ramos): 1.2
isoTOP-ABPP ratio, P50851_C1704 (LRBA C1704 (P50851); 500 μM, invitro, 231): 0.7
isoTOP-ABPP ratio, P50851_C1704 (LRBA C1704 (P50851); 500 μM, invitro, ramos): 0.8
isoTOP-ABPP ratio, Q16877_C159 (PFKFB4 C159 (Q16877); 500 μM, invitro, 231): 0.9
isoTOP-ABPP ratio, Q9HB90_C377 (RRAGC C377 (Q9HB90); 500 μM, 231): 2.1
isoTOP-ABPP ratio, Q9Y5T5_C205 (USP16 C205 (Q9Y5T5); 500 μM, invitro, ramos): 3.3
isoTOP-ABPP ratio P24752_C413 (ACAT1 C413 (P24752); 500 μM, invitro, 231): 5.5
isoTOP-ABPP ratio P24752_C413 (ACAT1 C413 (P24752); 500 μM, invitro, ramos): 7.3
SMILES: O=C(CCl)NCCc1c[nH]c2ccccc12 [compound 13]

isoTOP-ABPP ratio (reactivity profile), Q5T1V6_C414 (DDX59 C414 (Q5T1V6); 500 μm in-vitro ramos_231): 1.2
isoTOP-ABPP ratio (reactivity profile), P50851_C1704 (LRBA C1704 (P50851)): 1.6
isoTOP-ABPP ratio (reactivity profile), P50851_C2675 (LRBA C2675 (P50851); 500 μm in-vitro ramos): 1.5
isoTOP-ABPP ratio (reactivity profile), P50851_C2675 (LRBA C2675 (P50851); 500 μm in-vitro ramos_231): 0.9
isoTOP-ABPP ratio (reactivity profile), Q16877_C159 (PFKFB4 C159 (Q16877)): 1.2
isoTOP-ABPP ratio (reactivity profile), Q9HB90_C377 (RRAGC C377 (Q9HB90)): 1.4
isoTOP-ABPP ratio (reactivity profile), Q9Y5T5_C205 (USP16 C205 (Q9Y5T5); 500 μm in-vitro ramos_231): 1.6
isoTOP-ABPP ratio (reactivity profile), P24752_C413 (ACAT1 C413 (P24752); 500 μm in-vitro ramos): 1.4
isoTOP-ABPP ratio (reactivity profile), P24752_C413 (ACAT1 C413 (P24752); 500 μm in-vitro ramos_231): 1.4
SMILES: O=C(CCl)NC12CC3CC(CC(C3)C1)C2 [compound 21]

isoTOP-ABPP ratio (reactivity profile), Q5T1V6_C414 (DDX59 C414 (Q5T1V6); 500 μm in-vitro ramos): 1.4
isoTOP-ABPP ratio (reactivity profile), P50851_C1704 (LRBA C1704 (P50851)): 3.4
isoTOP-ABPP ratio (reactivity profile), P50851_C2675 (LRBA C2675 (P50851); 500 μm in-vitro ramos): 2.6
isoTOP-ABPP ratio (reactivity profile), Q16877_C159 (PFKFB4 C159 (Q16877)): 1.0
isoTOP-ABPP ratio (reactivity profile), Q9HB90_C377 (RRAGC C377 (Q9HB90)): 1.5
isoTOP-ABPP ratio (reactivity profile), Q9Y5T5_C205 (USP16 C205 (Q9Y5T5); 500 μm in-vitro ramos): 1.2
isoTOP-ABPP ratio (reactivity profile), P24752_C413 (ACAT1 C413 (P24752); 500 μm in-vitro ramos): 1.2
isoTOP-ABPP ratio (reactivity profile), P24752_C413 (ACAT1 C413 (P24752); 500 μm in-vitro ramos_231): 1.1
SMILES: N#C/C(=C\c1cc(C(F)(F)F)cc(C(F)(F)F)c1)C(N)=O [compound 23]

isoTOP-ABPP reactivity profile ratio, P50851_C1704 (LRBA C1704 (P50851); 500 μm, in-vitro_ramos): 1.1
isoTOP-ABPP reactivity profile ratio, P50851_C2675 (LRBA C2675 (P50851); 500 μm, in-vitro_ramos): 0.9
isoTOP-ABPP reactivity profile ratio, Q16877_C159 (PFKFB4 C159 (Q16877); 500 μm, in-vitro_ramos): 1.1
isoTOP-ABPP reactivity profile ratio, Q9HB90_C377 (RRAGC C377 (Q9HB90); 500 μm, in-vitro_ramos_231): 0.6
isoTOP-ABPP reactivity profile ratio, Q9Y5T5_C205 (USP16 C205 (Q9Y5T5); in-vitro_ramos): 3.2
isoTOP-ABPP reactivity profile ratio, Q9Y5T5_C205 (USP16 C205 (Q9Y5T5); in-vitro_ramos_231): 1.7
isoTOP-ABPP reactivity profile ratio, P24752_C413 (ACAT1 C413 (P24752); in-vitro_ramos): 1.0
isoTOP-ABPP reactivity profile ratio, P24752_C413 (ACAT1 C413 (P24752); in-vitro_ramos_231): 1.0
SMILES: O=C(CCl)Nc1cccc2ncccc12 [compound 51]

Source: patent US10670605B2, “Cysteine reactive probes and uses thereof” (The Scripps Research Institute, priority 2015, dated 2020)
